Experimental data as given in patent US6451780B1, “Progesterone antagonists for the production of pharmaceutical agents for the treatment of dysfunctional uterine bleeding” (Schering Aktiengesellschaft, priority 1995, dated 2002).

Columns and labels:
Type in all cases: in vivo
[1] = test system: Women with dysfunctional metrorrhagias; assay: Acute treatment of metrorrhagias with onapristone; details: one-time oral 200-400 mg, preferably luteal phase
Description: Acute Treatment of Metrorrhagias by One-time Administration of Onapristone Women with dysfunctional metrorrhagias are orally treated on a one-time basis with 200-400 mg of onapristone. Preferred is treatment in the luteal phase of the cycle. The treatment results in a cessation of bleeding within 2-4 days.

[2] = test system: Women with menorrhagias and hypermenorrhea; assay: Acute treatment of menorrhagias and hypermenorrhea with onapristone
Description: Acute Treatment of Menorrhagias and Hypermenorrhea by One-time Administration of Onapristone Women with menorrhagias and hypermenorrhea are orally treated on a one-time basis with 200-400 mg of onapristone on the 28th day of the cycle or on the first day of bleeding. The treatment induces menstruation-like bleeding of normal intensity (about 30 ml) and duration (about 5 days). Acute Treatment of Menorrhagias and Hypermenorrhea by Repeated Administration of Onapristone Women with menorrhagias and hypermenorrhea are orally treated until bleeding ceases on the 28th day of the cycle or on the first day of bleeding with 200-400 mg/day of onapristone, at most over 10 days.

[3] = test system: Women with dysfunctional metrorrhagias; assay: Prophylactic treatment of metrorrhagias with onapristone; details: 3-6 cycles
Description: (§1) Prophylactic Treatment of Metrorrhagias by One-time Administration of Onapristone Women with dysfunctional metrorrhagias are orally treated on a one-time basis with 200-400 mg of onapristone every 28 days. […] The treatment is continued for 3-6 cycles. Prophylactic Treatment of Metrorrhagias by Repeated Administration of Onapristone Women with dysfunctional metrorrhagias are orally treated every 28 days for a maximum of 10 days with 200-400 mg/day of onapristone. […] The treatment is continued over 3-6 cycles.

[4] = test system: Women with menorrhagias and hypermenorrhea; assay: Prophylactic treatment of menorrhagias and hypermenorrhea with onapristone; details: 3-6 cycles
Description: as §1, with “Menorrhagias and Hypermenorrhea” for “Metrorrhagias”, “menorrhagias and hypermenorrhea” for “dysfunctional metrorrhagias”, “treated” for “treated on a one-time basis”, “for” for “over”

[5] = one-time oral 200-400 mg on 28th day of cycle or first day of bleeding
[6] = repeated oral 200-400 mg/day until bleeding ceases, at most 10 days, from 28th day of cycle or first day of bleeding
[7] = one-time oral 200-400 mg every 28 days
[8] = repeated oral 200-400 mg/day every 28 days for a maximum of 10 days

CN(C)c1ccc([C@H]2C[C@]3(C)[C@@H](CC[C@]3(O)CCCO)[C@@H]3CCC4=CC(=O)CCC4=C32)cc1 [onapristone, 11β-(4-dimethylaminophenyl)-17α-hydroxy-17β-(3-hydroxy-propyl)-13α-methyl-4,9-gonadien-3-one]
cessation of bleeding within [1]: 2 to 4 days
duration of induced menstruation-like bleeding [2, 5]: about 5 days
intensity of induced menstruation-like bleeding [2, 5]: about 30 ml
increased blood loss ([2]; repeated oral 200-400 mg/day until bleeding ceases, at most 10 days): prevents increased blood loss
duration of induced menstruation-like bleeding [2, 6]: about 5 days
intensity of induced menstruation-like bleeding [2, 6]: about 30 ml
duration of induced menstruation-like bleeding [3, 7]: about 5 days
intensity of induced menstruation-like bleeding [3, 7]: about 30 ml
occurrence of metrorrhagias [3, 7]: prevents the occurrence of metrorrhagias
duration of induced menstruation-like bleeding [3, 8]: about 5 days
intensity of induced menstruation-like bleeding [3, 8]: about 30 ml
occurrence of metrorrhagias [3, 8]: prevents the occurrence of metrorrhagias
duration of induced menstruation-like bleeding [4, 7]: about 5 days
intensity of induced menstruation-like bleeding [4, 7]: about 30 ml
occurrence of menorrhagias and hypermenorrhea [4, 7]: prevents the occurrence of menorrhagias and hypermenorrhea
duration of induced menstruation-like bleeding [4, 8]: about 5 days
intensity of induced menstruation-like bleeding [4, 8]: about 30 ml
occurrence of menorrhagias and hypermenorrhea [4, 8]: prevents the occurrence of menorrhagias and hypermenorrhea
